Results: patent US20250241862A1, “EXOSOMAL COMPOSITIONS INCLUDING ANESTHETICS” (THE BOARD OF TRUSTEES OF THE UNIVERSITY OF ALABAMA, priority 2024, published 2025)
Structures can show the parent of a compound that is named as a salt. Blank lines part the entries; values can stand above or below the compound they belong to.

Tests used:
[1] = In vitro release of BUP by dialysis; type: physicochemical; settings: dialysis 8-10 kD, 1×PBS pH 7.4, 37° C.; free BUP at 0.5% (w/v) and saturated concentrations
Method: To assess the release kinetics of BUP from the BUP@EXO, a dialysis method was employed. Specifically, 1 mL of BUP@EXO, containing 5 mg BUP, was introduced into a Spectra/Por Float-A-Lyzer G2 dialysis bag with a molecular weight cutoff ranging from 8-10 kD (Spectrum Laboratories, Ranchodominguez, CA). This bag was then immersed in 20 mL of phosphate-buffered saline (PBS) with a pH of 7.4. The setup was maintained at 37° C. and subjected to continuous 200 rpm shaking. At specified time points, the dialysis bag was relocated to fresh 1×PBS to ensure a consistent concentration gradient. The concentration of BUP in the dialysate was ascertained by measuring its absorbance at 272 nm and referencing it against a pre-established standard curve. We collected the washout solutions (filtrate) in the lower chambers of centrifugal filters. Subsequently, these solutions underwent UV-Vis spectroscopy to determine the BUP concentration. The encapsulation efficiency is thereby calculated by
We conducted in-depth in vitro drug release kinetic analysis at 37° C. for our BUP@EXO formulations. 1 mL of BUP@EXO in 1×PBS, containing 5 mg BUP, was introduced into a dialysis bag with a molecular weight cutoff ranging from 8-10 kD. The dialysis bag was then immersed in 20 mL of 1×PBS with a pH of 7.4. The setup was maintained at 37° C. and subjected to continuous shaking of 200 rpm. […]

sciatic nerve [2] = experiment: Sciatic nerve histology (toluidine blue) for neurotoxicity; type: in vivo, rat
Source text: For nerve injury histology, samples underwent Epon-embedding and fixation using Karnovsky's KII Solution, which comprises 2.5% glutaraldehyde, 2.0% paraformaldehyde, and 0.025% calcium chloride in a 0.1 M sodium cacodylate buffer with a pH of 7.4. Subsequently, samples were post-fixed using osmium tetroxide, stained with uranyl acetate, and then dehydrated through a series of ethanol solutions. This was followed by infiltration with mixtures of propylene oxide and Epon. Sections, with a thickness of 0.5 μm, were then stained using toluidine blue, facilitating high-resolution light microscopy examination.
Epon-embedded sections of the sciatic nerve were stained with toluidine blue. […] Furthermore, when 2.5 mg free BUP was injected, 3 out of 4 tissues presented significant nerve degeneration, which is determined by the density decrease of nerve fibers within the nerve section (FIG. 6b).

[3] = test system: muscle at the injection site; experiment: Muscle histology (H&E) inflammation and myotoxicity scoring; type: in vivo, rat
Source text: Following euthanasia, the sciatic nerve and adjacent muscle tissues were meticulously extracted. Muscle specimens underwent processing to yield slides stained with hematoxylin and eosin. A macroscopic dissection score was assigned based on the following criteria: 0=tissue planes obvious and easily separated; 1=tissue planes obvious but separated with some difficulty; 2=tissue planes adherent and separated with some difficulty; 3=tissue planes completely obliterated, could not separate surrounding tissues from nerve without cutting through them. Muscle samples underwent evaluation for inflammation (on a scale of 0-4) and myotoxicity (on a scale of 0-6). The inflammation score was a subjective measure of its severity. The myotoxicity score was based on two hallmark features of local anesthetic-induced myotoxicity: nuclear internalization and regeneration. […] Regeneration manifests as contracted myocytes with basophilic cytoplasm. The scoring was as follows: 0=normal; 1=perifascicular internalization; 2=deep internalization (>5 cell layers), 3=perifascicular regeneration, 4=deep regeneration, 5=hemifascicular regeneration, 6=holofascicular regeneration.
The sciatic nerve and surrounding tissues were harvested, sectioned, and stained for histologic assessment. Muscle tissues were processed for hematoxylin-eosin (H&E) staining. The myotoxicity and inflammation were quantified using a previously reported scoring system (Table 1, Table 2).

[4] = test system: Creatine Kinase (CK-total, CK-MB) activity in serum; experiment: Serum creatine kinase activity (CK-total, CK-MB), cardiotoxicity; type: in vivo, rat; settings: 48 hours after injection
Method: In another experiment, rats were euthanized at the 48-hour mark. Blood samples were meticulously collected through two methods: a cardiac puncture, which involves drawing blood directly from the heart, and a separate collection from the femoral artery. Once collected, the blood samples were subjected to centrifugation, a process that separates the serum from other blood components. The isolated serum was then analyzed for creatine kinase activity using a colorimetric assay kit for creatine kinase activity. The intensity was quantified using a plate-reader, an instrument that measures absorbance levels.
It is important to recognize that the side effects of BUP and other local anesthetics go beyond just localized tissue reactions. A major concern with administering BUP is its potential harmful cardiotoxic effects. This can be particularly severe in certain instances, such as arrhythmias and cardiac asystole. Cardiotoxicity can be observed through increased activity of Creatine Kinase(CK), an family of enzymes that is released into the blood in response to lesions in contractile fibers, serve as biochemical markers for muscle damage, including myocardial injury. Elevated activity levels of CK, especially its cardiomyocyte isoform—Creatine Kinase-Myocardial Band (CK-MB), can be a warning sign for serious outcomes such as cardiac arrhythmias, heart failure, and other cardiovascular complications.
Two types of samples were obtained: from the femoral artery and cardiac puncture. These samples were analyzed to evaluate the activity in serum of total CK (CK-total) and its cardiomyocyte isoform (CK-MB).

sciatic nerve [5] = experiment: Rat sciatic nerve block, neurobehavioral test (hot plate thermal latency, weight bearing); type: in vivo; settings: for nerve block at injected site (observation): single sciatic nerve injection 0.3 mL
Source text: Adult male Sprague-Dawley rats (Charles River Laboratories, Wilmington, MA) weighing 250-350 g were housed in groups, in a 6 am-6 pm light-dark cycle. Animals were cared for in accordance with protocols approved by the Institutional Animal Care and Use Committee of the University of Alabama (Protocol ID: 19-11-2992), and the Guide for the Care and Use of Laboratory Animals of the US National Research Council.
Nerve block injections were meticulously executed utilizing a 23-gauge needle, with rats being anesthetized under a combination of isoflurane and oxygen. […] Additionally, injections of free BUP were given at doses of 0.75 mg and 1.5 mg. A control group received an injection of 50 μg of empty exosomes. The injection technique involved positioning the needle posteromedially to the greater trochanter and directing it anteromedially. Upon making contact with the bone, the prepared solution was administered.
Subsequently, the rats underwent neurobehavioral test to determine the duration of functional deficits (i.e., sensory and motor nerve blockade) in both hind paws. The duration of deficits on the injected side (left, ipsilateral) reflected the duration of nerve block. Any deficits observed on the uninjected side (right, contralateral) were indicative of the systemic BUP distribution.
The efficacy of the nerve block was assessed at specified intervals using established methodologies. Sequentially, the left and then the right hind paws of the rats were subjected to a 56° C. hot plate (model 39D Hot Plate Analgesia meter; IITC Inc., Woodland Hills, CA). The duration until the paw was withdrawn, termed thermal latency, was meticulously recorded. […] Thermal latency serves as an indicator of analgesic potency. […] For a systemic effect baseline, latency was also gauged in the non-injected leg. The duration of the thermal nociceptive block was determined as the time taken for the thermal latency to revert from an elevated value to a baseline of 7 seconds. In adult rats, this 7-second threshold represents the median between the maximum block and the typical thermal latency, which is roughly 2 seconds, with the upper limit being 12 seconds. Motor function was evaluated by suspending the animal over a balance and recording the maximum weight the animal could bear. The duration of motor blockade was determined as the period until weight-bearing capacity returned to half of its normal level from the point of maximal block. For each rat, the halfway point was calculated as [(highest weight borne by either leg)−(lowest weight borne by the blocked leg)]/2+the lowest weight borne by the blocked leg.

[6] = osmotic shock method; cited from earlier work

- cumulative release within initial 5-hour period [1]: near-complete cumulative release
- contralateral nerve blockade (systemic distribution) (sciatic nerve [5]; 0.75 mg BUP equivalent, uninjected side): no contralateral nerve blockade
- contralateral nerve blockade (systemic distribution) (sciatic nerve [5]; 1.5 mg BUP equivalent, uninjected side): no contralateral nerve blockade
- occurrence of drowsiness (sciatic nerve [5]; 2.5 mg BUP): 3 out of 4 animals
- contralateral sensory nerve blockade (systemic distribution) (sciatic nerve [5]; 2.5 mg BUP equivalent, uninjected side): 3 out of 4 animals
- contralateral thermal latency (sciatic nerve [5]; 2.5 mg BUP, uninjected side, 56° C. hot plate): ~7 s
Structure (SMILES): CCCCN1CCCCC1C(=O)Nc1c(C)cccc1C (stereo not shown) [free BUP, Bupivacaine Hydrochloride]
- tissues with signs of neurotoxicity (sciatic nerve [2]; 1.5 mg, 48 hours): 1 out of 4
- tissues with significant nerve degeneration (sciatic nerve [2]; 2.5 mg): 3 out of 4
- myotoxicity score (scale 0-6) ([3]; 1.5 mg, 4 days, 1 of 4 rats): 2
- inflammation score (out of 4) ([3]; 2.5 mg, 48 hours): up to 3
- myotoxicity score (out of 6) ([3]; 2.5 mg, 48 hours): up to 3
- Creatine Kinase activity profiles (CK-total, CK-MB) vs blank control ([4]; 0.75 mg): did not result in significant alteration
- CK activity vs blank control ([4]; 1.5 mg): considerable elevation in CK activity
- CK activity vs blank control ([4]; 2.5 mg): considerable elevation in CK activity
- success rate of nerve blockade (sciatic nerve [5]; 0.75 mg BUP equivalent): 0%
- nerve block at injected site (observation) (sciatic nerve [5]; 0.75 mg BUP in PBS): neither a detectable nerve block nor toxicity
- duration of motor blockade (sciatic nerve [5]; 1.5 mg BUP equivalent): 0.458 ± 0.176 h
- duration of sensory nerve blockade (sciatic nerve [5]; 1.5 mg BUP equivalent): 1.833 ± 0.250 h
- nerve block at injected site (observation) (sciatic nerve [5]; 1.5 mg BUP in PBS): successfully induced nerve block at the injected sites in all animals
- duration of motor blockade (sciatic nerve [5]; 2.5 mg BUP equivalent): 2.12 ± 0.54 h
- duration of sensory nerve blockade (sciatic nerve [5]; 2.5 mg BUP equivalent): 2.75 ± 0.43 h

Structure (SMILES): CC(=O)CCCCn1c(=O)c2c(ncn2C)n(C)c1=O [pentoxifylline]
- encapsulation efficiency (drug per protein-equivalent exosomes) [6]: 0.85 μg of drug per μg of protein-equivalent exosomes
